The term Ki denotes the equilibrium dissociation constant of an inhibitor or competing ligand from its target. For orientation: EC50 means the concentration giving half of the maximal effect. High values mean lower potency in that assay, low ones higher potency in that assay. One may read the IC50 as the point on the concentration scale where inhibition reaches its midpoint. The low end stands for greater potency in that assay, the high end for weaker potency in that assay.

Active and inactive are the calls of the source. No cut-off for these calls is given here.

In test [1] the target is T1, Retinoic acid receptor gamma (Homo sapiens, UniProt P13631).
T1 sequence (P13631 whole entry): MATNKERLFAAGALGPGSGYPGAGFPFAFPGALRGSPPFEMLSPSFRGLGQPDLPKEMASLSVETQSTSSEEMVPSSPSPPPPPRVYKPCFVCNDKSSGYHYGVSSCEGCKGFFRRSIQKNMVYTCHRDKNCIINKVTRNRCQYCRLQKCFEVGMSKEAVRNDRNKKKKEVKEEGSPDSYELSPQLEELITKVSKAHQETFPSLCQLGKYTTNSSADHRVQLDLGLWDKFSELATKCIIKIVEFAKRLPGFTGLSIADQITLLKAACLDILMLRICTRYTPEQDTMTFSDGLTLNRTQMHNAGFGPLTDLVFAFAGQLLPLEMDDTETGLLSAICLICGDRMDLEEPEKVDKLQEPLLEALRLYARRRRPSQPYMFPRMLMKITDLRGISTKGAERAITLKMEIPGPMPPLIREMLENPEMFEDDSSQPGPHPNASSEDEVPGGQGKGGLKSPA
As to the kind of experiment: Binding affinity against Retinoic acid receptor gamma was determined in vitro by using [3H]ATRA as radioligand.

A short description of test [2]: RXR:RAR synergy expressed as fold induction.
A further test has as its target RXR alpha/PPAR gamma (Homo sapiens, UniProt P19793).
For test [3], the target named is T2, Retinoic acid receptor RXR-alpha (Homo sapiens, UniProt P19793).
T2 sequence (P19793 whole entry): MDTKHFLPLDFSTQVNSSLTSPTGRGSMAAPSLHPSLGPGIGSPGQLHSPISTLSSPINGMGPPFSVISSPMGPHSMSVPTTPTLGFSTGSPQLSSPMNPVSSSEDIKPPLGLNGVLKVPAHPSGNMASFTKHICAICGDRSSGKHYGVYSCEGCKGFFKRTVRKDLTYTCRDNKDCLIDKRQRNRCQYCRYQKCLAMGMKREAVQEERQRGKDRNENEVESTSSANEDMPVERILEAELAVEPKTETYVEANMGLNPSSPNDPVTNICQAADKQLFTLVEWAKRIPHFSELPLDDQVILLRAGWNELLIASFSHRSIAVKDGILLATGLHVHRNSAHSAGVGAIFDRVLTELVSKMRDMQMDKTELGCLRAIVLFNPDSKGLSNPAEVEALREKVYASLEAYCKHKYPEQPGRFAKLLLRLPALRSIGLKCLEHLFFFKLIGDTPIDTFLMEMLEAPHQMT
Description: Binding affinity against Retinoic acid receptor RXR-alpha was determined in vitro by using [3H]9-cis-RA as radioligand

The target of test [4] is T2, Retinoic acid receptor RXR-alpha. This is another data set of the same source.
Description: Inhibition of Retinoic acid receptor RXR-alpha agonist activity in vitro
Test [5] shares this target. The experiment in a line: Inhibitory activity against Retinoic acid receptor RXR-alpha antagonist was determined in vitro. Format: functional.
Test [6] has as its system Mus musculus. As to the kind of experiment: In vivo hypoglycemic activity, as reduced plasma glucose in db/db mouse type II diabetes model. The test is classed as functional.
In test [7] the test system is Mus musculus. As to the kind of experiment: In vivo hypoglycemic activity compared to BRL-46953 as reduced plasma glucose in db/db mouse type II diabetes model. Format: functional.
The species entered for test [8] is Rattus norvegicus. As to the kind of experiment: Effect on T4 levels in male Dawley rats at 24 hr r. The test is classed as functional.
For test [9], the species on record is Rattus norvegicus. The experiment in a line: Effect on triglyceride level in male Dawley rats at 24 hr r. Format: functional.
Test [10] has as its target T3, Retinoic acid receptor RXR-alpha (Homo sapiens) (UniProt P19793).
T3 sequence (whole entry): T2 sequence (P19793 whole entry)

Test [11] can be described thus: Transcriptional activation in CV-1 cells expressing RXR and LXR at 1 uM. Format: functional.

RXR alpha/PPAR gamma, sequence (P37231 whole entry, one chain of several): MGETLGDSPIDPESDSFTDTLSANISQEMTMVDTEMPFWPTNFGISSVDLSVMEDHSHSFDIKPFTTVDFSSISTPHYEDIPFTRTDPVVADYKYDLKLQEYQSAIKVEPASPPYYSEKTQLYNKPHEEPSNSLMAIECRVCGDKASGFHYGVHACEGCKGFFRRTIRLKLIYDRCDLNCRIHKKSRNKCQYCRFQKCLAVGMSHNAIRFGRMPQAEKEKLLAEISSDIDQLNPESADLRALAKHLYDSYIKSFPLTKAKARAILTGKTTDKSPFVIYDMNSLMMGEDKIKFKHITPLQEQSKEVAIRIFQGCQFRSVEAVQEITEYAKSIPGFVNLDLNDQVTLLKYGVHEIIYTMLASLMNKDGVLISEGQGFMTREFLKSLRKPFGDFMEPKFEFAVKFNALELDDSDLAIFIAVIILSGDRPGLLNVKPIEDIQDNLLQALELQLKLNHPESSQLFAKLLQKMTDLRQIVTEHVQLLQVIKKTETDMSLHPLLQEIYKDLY
Description for RXR alpha/PPAR gamma: Transcriptional activity against RXR:PPAR-gamma synergy was determined in vitro

For `COc1c(\C(C)=C/C=C/C(C)=C/C(=O)O)cc(C(C)C)cc1C(C)C`, the Ki in test [1] came to 10000 nM; in test [3], 1 nM. For the same compound, the Synergy in [2] came out at 10 fold. Also, the values for the EC50 (on RXR alpha/PPAR gamma; in test [4]) were 8 nM and 2 nM, respectively.
On to `CCOc1c(\C(C)=C/C=C/C(C)=C/C(=O)O)cc(C(C)C)cc1C(C)C`, for which the Ki came out at 10000 nM in test [1] and 2 nM in [3]. In addition, the Synergy in test [2] turned out to be 5 fold. For the same compound, the results for the EC50 (on RXR alpha/PPAR gamma; in [4]) were 1 nM and 2 nM, respectively.
For `C/C(=C/C=C/C(C)=C/C(=O)O)c1cc(C(C)C)cc(C(C)C)c1OCCF`, the results for the Ki in test [1] and in test [3] were 10000 nM and 1 nM, respectively. Also, in test [2], the Synergy was found to be 4 fold. For the same compound, the IC50 in [5] is 4 nM. Besides, the EC50 on RXR alpha/PPAR gamma came to 4 nM; in test [4], 7 nM.
`C/C(=C/C=C/C(C)=C/C(=O)O)c1cc(C(C)C)cc(C(C)C)c1OCC(F)F`: the values for the Ki in test [1] and in [3] were 10000 nM and 2 nM, respectively. Also, the Synergy in test [2] came to 3 fold. In test [5], inhibition was half-maximal at 1 nM (IC50). On RXR alpha/PPAR gamma, the EC50 turned out to be 10 nM.
The corresponding values for `C/C(=C/C=C/C(C)=C/C(=O)O)c1cc(C(C)C)cc(C(C)C)c1OCC(F)(F)F` are 1860 nM, 3 nM, 2 fold, 6 nM and 3 nM.
Consider `CN(CCOc1ccc(CC2SC(=O)NC2=O)cc1)c1ccccn1.O=C(O)/C=C\C(=O)O` (stereo not drawn) [ROSIGLITAZONE MALEATE], for which the Activity was 412 mg/dL in the test with Mus musculus [6], 70 ng/mL in the test filed under Rattus norvegicus [8] and 78 mg/dL in the test listed under Rattus norvegicus [9]. The compound also displayed a Normalization with Mus musculus [7] of 100%. Further, in [10], the NB result was “inactive”.
As to `Cc1cc2c(cc1C1(c3ccc(C(=O)O)cn3)CC1)C(C)(C)CCC2(C)C`, the Activation in test [11] was determined as 6.3 fold. The Activity in the test with Mus musculus [6] amounted to 400 mg/dL; in the test listed under Rattus norvegicus [8] it was 37 ng/mL; in the test listed under Rattus norvegicus [9], 152 mg/dL. In the test with Mus musculus [7], the Normalization was 101%. For the same compound, the Synergy in test [2] stood at 7 fold.
For `CCCCOc1c(\C(C)=C/C=C/C(C)=C/C(=O)O)cc(C(C)C)cc1C(C)C`, the Activation in test [11] is on record as 0.6 fold. Besides, the Activity was 502 mg/dL with Mus musculus [6], 72 ng/mL in the test listed under Rattus norvegicus [8] and 63 mg/dL in the test listed under Rattus norvegicus [9]. Moreover, in the test with Mus musculus [7], the Normalization was 33%. In addition, the Ki is 10000 nM in test [1] and 4 nM in [3]. Further, the Synergy in test [2] was determined as 1 fold. Also, the IC50 in test [5] turned out to be 4 nM. Besides, the EC50 at RXR alpha/PPAR gamma worked out at 12 nM.
Take `CCCOc1c(\C(C)=C/C=C/C(C)=C/C(=O)O)cc(C(C)(C)C)cc1C(C)(C)C`: the Ki stood at 10000 nM in [1] and 14 nM in test [3]. The Synergy in test [2] is 1 fold. Further, it took 43 nM to reach half-maximal inhibition in test [5] (IC50). At RXR alpha/PPAR gamma, this compound showed an EC50 of 154 nM.
As to `COc1c(\C(C)=C/C=C/C(C)=C/C(=O)O)cc(C(C)(C)C)cc1C(C)(C)C`, the Ki in test [1] was determined as 10000 nM; in [3], 1 nM. Further, the Synergy in test [2] was determined as 3 fold. In addition, the EC50 on RXR alpha/PPAR gamma turned out to be 7 nM; in [4], 36 nM.
Compound `C/C(=C/C=C/C(C)=C/C(=O)O)c1cc(C(C)(C)C)cc(C(C)(C)C)c1OCC(F)F` had an Activation in [11] of 1.2 fold. Moreover, the Activity is 409 mg/dL in the test on Mus musculus [6], 70 ng/mL in the test filed under Rattus norvegicus [8] and 75 mg/dL in the test listed under Rattus norvegicus [9]. Besides, the Normalization in the test with Mus musculus [7] turned out to be 101%. This compound came in with a Ki in test [1] of 10000 nM. In addition, the Synergy in test [2] was found to be 2 fold.
For the compound `CCC(C)(C)c1cc(\C(C)=C/C=C/C(C)=C/C(=O)O)c(OC)c(C(C)(C)CC)c1`, the Ki in test [1] amounted to 10000 nM; in test [3], 2 nM. Moreover, in test [2], the Synergy stood at 2 fold. Also, the EC50 came out at 6 nM on RXR alpha/PPAR gamma and 506 nM in test [4].
Take `C/C(=C/C=C/C(C)=C/C(=O)O)c1cc(C(C)(C)C)cc(C(C)(C)C)c1OCC(F)(F)F`: the Ki in test [1] is 4030 nM. Further, the Synergy in test [2] was determined as 1 fold. In test [5], this compound yielded an IC50 of 8 nM. At RXR alpha/PPAR gamma, this compound registered an EC50 of 2 nM.
Turning to `CCCOc1c(\C(C)=C/C=C/C(C)=C/C(=O)O)cc(C(C)C)cc1C(C)C`, the Ki was determined as 10000 nM in test [1] and 3 nM in [3]. In addition, the Synergy in test [2] worked out at 2 fold. In addition, the midpoint of inhibition in [5], the IC50, lay at 4 nM. Also, on RXR alpha/PPAR gamma, it took 5 nM to reach a half-maximal effect (EC50).
For the compound `CCCOc1c(\C(C)=C/C=C/C(C)=C/C(=O)O)cc(C(C)(C)CC)cc1C(C)(C)CC`, the Ki in test [1] stood at 10000 nM; in test [3], 23 nM. In addition, the Synergy in [2] came out at 1 fold. For the same compound, the midpoint of inhibition in test [5], the IC50, lay at 13 nM. On RXR alpha/PPAR gamma, this compound had an EC50 of 19 nM.
The corresponding values for `CCOc1c(\C(C)=C/C=C/C(C)=C/C(=O)O)cc(C(C)(C)CC)cc1C(C)(C)CC` are 2500 nM, 2 nM, 2 fold, 17 nM and 9 nM.
As to `CCC(C)(C)c1cc(\C(C)=C/C=C/C(C)=C/C(=O)O)c(OCC(F)F)c(C(C)(C)CC)c1`, the affinity in test [1] corresponds to a Ki of 10000 nM. Also, the Synergy in test [2] turned out to be 1 fold. In addition, in [5], it took 16 nM to reach half-maximal inhibition (IC50). At RXR alpha/PPAR gamma, this compound showed an EC50 of 11 nM.
With `CCOc1c(\C(C)=C/C=C/C(C)=C/C(=O)O)cc(C(C)(C)C)cc1C(C)(C)C`, the Activation in test [11] is given as 2.04 fold. In addition, the Activity was 412 mg/dL in the test with Mus musculus [6], 25 ng/mL in the test listed under Rattus norvegicus [8] and 92 mg/dL in the test listed under Rattus norvegicus [9]. In the test on Mus musculus [7], this compound had a Normalization of 100%. The Ki worked out at 10000 nM in [1] and 11 nM in test [3]. In test [2], the Synergy turned out to be 3 fold. Moreover, the IC50 in [5] was 8 nM. Also, the figures for the EC50 (on RXR alpha/PPAR gamma; in test [4]) were 2 nM and 18 nM, respectively.

(Values after ChEMBL document CHEMBL1145809, “Novel (2E,4E,6Z)-7-(2-alkoxy-3,5-dialkylbenzene)-3-methylocta-2,4,6-trienoic acid retinoid X receptor modulators are active in models of type 2 diabetes” (J Med Chem, 2003).)
